Data taken from US7988972B2, “Immunoreactive peptides from Epstein-Barr virus” (Ortho-Clinical Diagnostics, Inc., priority 1993, dated 2011).
Values joined by “and” are separate entries in the source; they are usually repeats but may differ in a detail not shown here. Equal entries are not always repeated.

Columns and labels:
[1] = system: anti-EA-R and anti-EA-D sera; assay: ELISA, anti-EA-R and anti-EA-D sera against p17.1 and p50.10; assay type: binding, human; conditions: individual sera, donors Anti-EA-negative (VCA-negative); values >0.2 significant
Procedure: ELISA. The ELISA for measuring specific antibodies to p17, p50 or to the synthetic peptides was performed as previously described in detail (Luka et al., J. Immunol. Methods, 67:145-156, 1984). Aliquots of different antigen concentrations were diluted in 0.5M Na2CO3 buffer, pH 9.5, added to wells in polystyrene microtiter plates (Linbro) and the plates incubated overnight at 4° C. Following this incubation period, the plates were washed 5× with Tris-HCl, pH 7.4, containing 0.05% Tween 20, 50 mM NaCl and 100 mg per liter albumin (Sigma) and dried for 20 minutes at room temperature. The plates were screened with different anti-EA-R or EA-D antibody positive human sera and the monoclonal antibody to p17 or p50 to identify the optimal concentration of antigen to be used in the serological studies. Alkaline-phosphatase-labelled goat anti-human IgG (Sigma) or goat anti-mouse IgG (Sigma) was used as the indicator system.
For the testing of human sera for antibodies to native p17, p50 or to the synthetic peptides, sera were diluted 1:10 in ELISA buffer, added in 0.1 ml volumes to wells coated with optimal concentrations of antigen and the plates were incubated for 60 minutes at room temperature. […] The reaction was allowed to proceed for 30 minutes at 37° C. and then the plates were screened directly with a microplate reader, TITERTEK MULTISKAN MC (Flow), at 420 nm. […]

[2] = system: CD4+ T-cell subpopulation; assay: Proliferation assay with CD4+-enriched T-cell subpopulation; assay type: cell-based, human
Procedure: PBL enriched for T-cell subpopulations were isolated by depleting a particular population by antibody/complement-mediated cytotoxicity. CD4^+ cells were prepared by lysing CD8^+ cells with anti-CD8 antibody and rabbit complement whereas the CD8^+ T cell subpopulation was enriched by lysing CD4^+ cells with an anti-CD4 antibody and rabbit complement.
PBL were resuspended in RPMI-1640 medium containing 2 mM L-glutamine, 25 mM HEPES, and 10 μg per ml gentamicin (HEPES media) at a concentration of 20×10^6 cells per ml. T cell specific MAb, OKT4 or OKT8 (Ortho Diagnostics Inc.), was added to the cells at the optimal concentration (previously determined by titration to give maximal lysis) and incubated on ice for 30 minutes. The cells were then washed with fresh HEPES media and resuspended at 10×10^6 cells per ml in baby rabbit complement (Pel-Freez Clinical Systems) diluted with the HEPES media to the appropriate concentration (previously assayed to give maximal antibody-specific cytotoxicity). The cells were incubated for 45 minutes in a 37° C. water bath with gentle mixing every 15 minutes. After incubation, the cells were washed thoroughly with the HEPES media and an aliquot (1-2×10^6) of cells was removed and stained for flow cytometric analysis which was performed as described below. […]

[3] = system: anti-EA antibodies in human sera; assay: Serological reactivity of different sera (VCA-EA-, VCA+EA+, VCA+EA-) with p50.10; assay type: binding
Procedure: Serological reactivity of different sera (VCA−EA−, VCA+EA+, VCA+EA−) with the p50.10 synthetic peptide was performed as described in Example 1, according to Pothen, et al., supra.

## ETFTETWNRFITHTE [p17.1, synthetic peptide from 17 Kd early antigen (EA-R) region of EBV]
[1]
  ELISA (420 nm) OD readings: 0.024 and 0.071 and 0.027
[2]; CD4+ subpopulation from donor A, different concentrations
  S.I.: ≤ 5.3
[2]; CD4+ subpopulation from donor B
  proliferation response: responded

## KQKHPKKVKQAFNPL [p50.10, synthetic peptide from 50 Kd early antigen (EA-D) region of EBV]
[3]
  reactivity with anti-EA antibody negative sera: lack of reactivity
